Structures are written as SMILES.

Data on 13 molecules can be found in ChEMBL document CHEMBL4431356, “Synthesis and activity of benzimidazole-1,3-dioxide inhibitors of separase” (Bioorg Med Chem Lett, 2016).

T1 sequence (Q14674 whole entry): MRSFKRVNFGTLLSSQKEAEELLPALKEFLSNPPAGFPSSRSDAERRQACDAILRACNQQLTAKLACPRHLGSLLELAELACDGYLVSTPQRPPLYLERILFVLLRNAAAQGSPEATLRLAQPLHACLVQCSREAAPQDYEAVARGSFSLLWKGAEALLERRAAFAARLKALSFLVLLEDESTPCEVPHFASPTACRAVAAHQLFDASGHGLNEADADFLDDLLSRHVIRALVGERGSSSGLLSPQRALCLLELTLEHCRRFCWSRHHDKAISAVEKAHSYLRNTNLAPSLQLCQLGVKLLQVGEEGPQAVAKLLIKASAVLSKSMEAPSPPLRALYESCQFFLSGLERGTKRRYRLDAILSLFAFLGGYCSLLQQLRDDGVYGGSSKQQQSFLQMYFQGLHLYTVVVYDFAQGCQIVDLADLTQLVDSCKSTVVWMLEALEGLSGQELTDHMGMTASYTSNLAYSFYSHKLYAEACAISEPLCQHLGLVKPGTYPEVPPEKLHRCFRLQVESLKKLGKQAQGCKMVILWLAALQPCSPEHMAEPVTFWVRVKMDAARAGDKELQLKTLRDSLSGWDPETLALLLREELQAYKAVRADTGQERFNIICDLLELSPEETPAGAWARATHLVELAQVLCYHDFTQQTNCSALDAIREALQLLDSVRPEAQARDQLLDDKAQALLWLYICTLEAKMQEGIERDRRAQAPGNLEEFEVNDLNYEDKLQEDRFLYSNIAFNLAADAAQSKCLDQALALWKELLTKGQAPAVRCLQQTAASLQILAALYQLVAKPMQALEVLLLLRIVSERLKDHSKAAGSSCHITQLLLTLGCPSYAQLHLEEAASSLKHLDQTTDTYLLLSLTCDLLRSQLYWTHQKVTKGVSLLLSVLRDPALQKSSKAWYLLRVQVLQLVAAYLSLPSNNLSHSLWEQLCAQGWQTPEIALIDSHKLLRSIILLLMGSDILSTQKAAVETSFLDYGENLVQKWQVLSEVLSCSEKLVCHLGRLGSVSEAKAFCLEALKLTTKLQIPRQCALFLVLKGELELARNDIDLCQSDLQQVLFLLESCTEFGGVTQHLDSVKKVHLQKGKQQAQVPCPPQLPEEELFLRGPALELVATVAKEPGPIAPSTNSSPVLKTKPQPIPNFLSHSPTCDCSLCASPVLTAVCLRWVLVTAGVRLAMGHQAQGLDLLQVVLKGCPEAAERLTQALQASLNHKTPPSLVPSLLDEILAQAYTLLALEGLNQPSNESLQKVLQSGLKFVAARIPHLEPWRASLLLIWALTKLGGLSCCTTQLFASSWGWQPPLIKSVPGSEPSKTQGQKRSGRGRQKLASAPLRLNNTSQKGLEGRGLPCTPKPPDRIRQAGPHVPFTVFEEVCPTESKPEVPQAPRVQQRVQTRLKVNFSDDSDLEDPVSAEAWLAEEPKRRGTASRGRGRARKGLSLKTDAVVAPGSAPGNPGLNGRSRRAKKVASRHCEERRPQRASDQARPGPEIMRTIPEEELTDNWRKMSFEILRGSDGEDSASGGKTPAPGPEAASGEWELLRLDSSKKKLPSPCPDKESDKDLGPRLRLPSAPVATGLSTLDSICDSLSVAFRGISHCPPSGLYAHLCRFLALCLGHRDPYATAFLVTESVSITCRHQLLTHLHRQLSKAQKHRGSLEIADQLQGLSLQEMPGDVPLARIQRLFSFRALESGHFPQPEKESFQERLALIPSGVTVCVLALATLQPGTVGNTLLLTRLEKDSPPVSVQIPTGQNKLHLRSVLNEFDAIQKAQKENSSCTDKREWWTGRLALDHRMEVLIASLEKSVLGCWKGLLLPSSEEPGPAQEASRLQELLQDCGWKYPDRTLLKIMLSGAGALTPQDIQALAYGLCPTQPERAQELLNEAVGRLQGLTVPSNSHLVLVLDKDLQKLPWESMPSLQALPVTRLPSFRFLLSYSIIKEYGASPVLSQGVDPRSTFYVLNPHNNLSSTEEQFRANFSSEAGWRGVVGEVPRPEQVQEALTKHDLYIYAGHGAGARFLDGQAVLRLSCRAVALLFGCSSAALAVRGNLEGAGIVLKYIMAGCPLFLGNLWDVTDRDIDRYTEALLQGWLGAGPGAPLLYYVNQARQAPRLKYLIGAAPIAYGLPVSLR

One experiment has as its target T1, Separin (Homo sapiens, UniProt Q14674). As to the kind of experiment: Inhibition of human ZZ TEV4-tagged separase expressed in human 293T cells using (Rad21)2-Rh110 as substrate preincubated for 1 hr followed by substrate addition measured after 3 hrs by fluorescence assay.
Consider `CC1(C)[N+]([O-])=c2ccc([N+](=O)[O-])cc2=[N+]1[O-]`, for which the IC50 – broadly, the concentration that gives 50% inhibition – is 15 µM.

Another experiment concerns the target T1, Separin. As to the kind of experiment: Inhibition of epitope-tagged separase (unknown origin) using Rad21-MCA as substrate preincubated for 1 hr followed by substrate addition measured after 3 hrs by fluorescence assay.
For `O=[N+]([O-])c1ccc2c(c1)=[N+]([O-])C1(CCCCC1)[N+]=2[O-]`, the IC50 came out at 16.2 µM. Same read-out and setting: for `CC1(C)[N+]([O-])=c2ccc(Br)cc2=[N+]1[O-]` the value was above 100 µM; for `CC1(C)[N+]([O-])=c2ccc(C(F)(F)F)cc2=[N+]1[O-]`, above 100 µM; for `CCOc1ccc2c(c1)=[N+]([O-])C(C)(C)[N+]=2[O-]`, above 100 µM.

`CC1(C)[N+]([O-])=c2ccc(C(=O)O)cc2=[N+]1[O-]` came in with an IC50 above 100 µM. On the same count and under the same terms, for `O=[N+]([O-])c1ccc2nonc2c1` the value was above 100 µM. Same read-out and setting: next, `CCOc1cc2c(cc1F)=[N+]([O-])C(C)(C)[N+]=2[O-]`: above 100 µM. Consider `CC1(C)[N+]([O-])=c2ccc([N+](=O)[O-])cc2=[N+]1[O-]`, for which the IC50 stood at 17.8 µM. As for `COC(=O)c1ccc2c(c1)[n+]([O-])c(C)c(C)[n+]2[O-]`, the concentration for half-maximal inhibition (IC50) is above 100 µM. On the same count and under the same terms, next, `COC(=O)c1ccc2c(c1)=[N+]([O-])C(C)(C)[N+]=2[O-]`: above 100 µM. The same measure, in the same setting: next, `CC1(C)[N+]([O-])=c2ccc(-c3ccccc3)cc2=[N+]1[O-]`: above 100 µM; `CC1(C)[N+]([O-])=c2ccc(F)cc2=[N+]1[O-]`: above 100 µM; `CCCCNc1ccc2c(c1)=[N+]([O-])C(C)(C)[N+]=2[O-]`: above 100 µM.
